Read-outs that look alike come from different tables or passages of the source. Some results are limits rather than exact numbers.

The target in one series is T1, AHR (UniProt P35869).
T1 construct: IC50
T1 sequence (P35869 1-848): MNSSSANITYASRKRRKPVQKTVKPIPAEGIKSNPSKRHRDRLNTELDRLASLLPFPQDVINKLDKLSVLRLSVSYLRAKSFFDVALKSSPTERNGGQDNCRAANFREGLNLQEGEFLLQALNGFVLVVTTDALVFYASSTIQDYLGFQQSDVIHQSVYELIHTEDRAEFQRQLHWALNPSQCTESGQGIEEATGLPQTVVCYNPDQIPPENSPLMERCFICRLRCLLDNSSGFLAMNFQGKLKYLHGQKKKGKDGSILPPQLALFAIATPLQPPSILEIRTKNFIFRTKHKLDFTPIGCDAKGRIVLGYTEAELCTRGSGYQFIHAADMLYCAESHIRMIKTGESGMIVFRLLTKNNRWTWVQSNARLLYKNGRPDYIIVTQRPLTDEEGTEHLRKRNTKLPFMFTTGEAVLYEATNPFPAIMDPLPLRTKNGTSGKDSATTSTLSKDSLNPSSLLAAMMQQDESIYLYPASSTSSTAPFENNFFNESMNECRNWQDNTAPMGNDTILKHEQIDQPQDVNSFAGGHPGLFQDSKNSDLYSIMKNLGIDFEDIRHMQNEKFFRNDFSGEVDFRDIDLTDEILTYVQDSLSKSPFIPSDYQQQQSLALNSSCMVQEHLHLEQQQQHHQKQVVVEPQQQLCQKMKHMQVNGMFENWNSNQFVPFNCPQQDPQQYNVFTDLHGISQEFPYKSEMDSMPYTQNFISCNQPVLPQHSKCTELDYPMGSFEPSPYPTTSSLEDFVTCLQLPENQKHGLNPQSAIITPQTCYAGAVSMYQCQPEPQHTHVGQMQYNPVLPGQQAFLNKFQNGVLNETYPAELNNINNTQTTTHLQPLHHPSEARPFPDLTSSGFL
Description: DRE-Luciferase Reporter Assay (Alternate Method) (Example 1B). To be noted: cell line and AHR activating ligand not specified. The series is classed as cell-based, murine or human. Background: Reporter assays use an easily measured gene product as a stand-in for the process of interest.

Series [1] in a line: Mouse Pharmacokinetic Study (Example 1C). The following applies: mouse, plasma, CD-1 mice; for Vd: read-out: Vdss. Type of series: in vivo. The essentials:
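CD-1 mice dosed intravenously or by oral gavage; plasma sampled at 0.167, 0.5, 1, 2, 4, 6, 12 and 24 h post-dose. Samples analyzed by LC/MS/MS (MRM, positive mode) against a plasma standard curve of 1.0–3000 ng/mL; PK parameters from non-compartmental analysis.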

The test system of another series is Cyp1a1. Nature of the series: In Vivo Mouse liver and spleen Cyp1a1 Modulation Assay (Example 1E). Also noted: species or system C57BL/6 mice. The following applies: po, with AHR agonist VAG539 30 mg/kg po, qPCR. The method, then:
C57BL/6 mice, female, 6-8 weeks old, weighing approximately 18-20 g were purchased from Shanghai Lingchang Biological Technology Co., Ltd or other certified vendors and used in the studies. Animal husbandry, feeding and health conditions are according to animal welfare guidelines. VAG539 (30 mg/kg, po) was used as AHRagonist, and test compounds were formulated in suitable vehicles, typically 0.5% methylcellulose).
C57BL/6 mice (n=3 per group) were treated with AHR agonist alone or with AHR agonist and test compounds. Animals were sacrificed at 4 or 10 hours after treatment upon which their livers and spleens were collected and subsequently analyzed by qPCR. Normalized fold induction of cyp1a1 was determined by comparing mCYP1A1 and mGAPDH counts (ct) according to: normalized fold=2^−ΔΔCt. The percent inhibition was calculated according to: […]
(Quantitative PCR measures a nucleic acid by following its amplification.)

Where [2] appears, read: 4 h, read-out: Cyp1a1 inhibition, Liver, 4 h.
[3] abbreviates: 4 h, read-out: Cyp1a1 inhibition, Spleen, 4 h.
The mark [4] stands for this setting: 10 h, read-out: Cyp1a1 inhibition, Liver, 10 h.

Turning to `CC(C)c1cnn2c(NCCc3c[nH]c4ccccc34)cc(-c3cncc(F)c3)nc12` [I-2, N-(2-(1H-indol-3-yl)ethyl)-5-(5-fluoropyridin-3-yl)-3-isopropylpyrazolo[1,5-a]pyrimidin-7-amine], the IC50 (commonly the concentration needed to halve the response being measured) against AHR was < 500 nM. In series [1] (po, 30 mg/kg), the bioavailability (as a rule, dose-corrected exposure relative to a reference, in per cent) amounted to 12%; the AUC(0-inf) – broadly, the area under the concentration-time curve extrapolated to infinity – amounted to 743 ng·h/mL; the exposure AUC(0-t) (usually the area under the concentration-time curve up to a stated or last time point) stood at 730 ng·h/mL; the peak level (Cmax) was 182 ng/mL. In addition, in series [1] (po, 30 mg/kg), the Tmax (in general, the time at which the peak concentration occurs) amounted to 0.2 h and the half-life (in general, how long it takes for the measured level to halve) is 3.9 h. Moreover, in series [1] (iv, 3 mg/kg), the total exposure AUC(0-inf) was 610 ng·h/mL; the AUC(0-t) is 554 ng·h/mL; the clearance (in general, the rate of elimination divided by the concentration) stood at 82 mL/min/kg; the half-life is 1.99 h. The Vd in series [1] (iv, 3 mg/kg) was found to be 9.6 L/kg. Also, the inhibition (usually the percentage by which the read-out fell short of the control) at 30 mg/kg with Cyp1a1 (setting [2]) turned out to be 50%.
Regarding `Cc1cnn2c(N[C@@H]3CCc4[nH]c5ccccc5c4C3)nc(-c3cncc(F)c3)nc12` [I-201, (3R)—N-[2-(5-fluoro-3-pyridyl)-8-methyl-pyrazolo[1,5-a][1,3,5]triazin-4-yl]-2,3,4,9-tetrahydro-1H-carbazol-3-amine], the IC50 at AHR was < 500 nM. Also, in series [1] (po, 30 mg/kg), the bioavailability is 79%, the AUC(0-inf) is 10600 ng·h/mL, the AUC(0-t) came to 9650 ng·h/mL and the concentration peaked (Cmax) at 1410 ng/mL. Further, in series [1] (po, 30 mg/kg), the time to peak (Tmax) turned out to be 1 h and the half-life is 7.16 h. In series [1] (iv, 3 mg/kg), this molecule gave an AUC(0-inf) of 1330 ng·h/mL, an AUC(0-t) of 1200 ng·h/mL, a clearance of 37.5 mL/min/kg and a half-life of 8.52 h. Further, in series [1] (iv, 3 mg/kg), the Vd was 19.6 L/kg. In the series on Cyp1a1 (setting [2]), the inhibition at 5 mg/kg was found to be 58%, the inhibition at 10 mg/kg stood at 72% and the inhibition at 25 mg/kg was found to be 86%. Besides, in the series on Cyp1a1 (setting [3]), the inhibition at 5 mg/kg is 40%, the inhibition at 10 mg/kg turned out to be 46% and the inhibition at 25 mg/kg was determined as 72%. Moreover, in the series on Cyp1a1 (setting [4]), the inhibition at 5 mg/kg is 44%, the inhibition at 10 mg/kg turned out to be 59% and the inhibition at 25 mg/kg was 97%.
In the case of `Cc1cnn2c(NCCc3c[nH]c4ccccc34)cc(-c3cncc(F)c3)nc12` [I-70, 5-(5-Fluoro-3-pyridyl)-N-[2-(1H-indol-3-yl)ethyl]-3-methyl-pyrazolo[1,5-a]pyrimidin-7-amine], in series [1] (po, 30 mg/kg), the bioavailability turned out to be 26%; the total exposure AUC(0-inf) is 1990 ng·h/mL; the area under the curve AUC(0-t) turned out to be 1940 ng·h/mL; the peak concentration (Cmax) (in general, the maximum level reached in the sampled fluid or tissue) stood at 900 ng/mL. In addition, in series [1] (po, 30 mg/kg), the time to peak (Tmax) came out at 0.5 h and the half-life was 2.26 h. In series [1] (iv, 3 mg/kg), this molecule gave an AUC(0-inf) of 872 ng·h/mL, an AUC(0-t) of 862 ng·h/mL, a clearance of 54.9 mL/min/kg and a half-life of 1.08 h. The Vd in series [1] (iv, 3 mg/kg) stood at 3.2 L/kg. In the series on Cyp1a1 (setting [2]), the inhibition at 1 mg/kg is 52%, the inhibition at 2 mg/kg was determined as 83%, the inhibition at 5 mg/kg came out at 93% and the inhibition at 10 mg/kg was found to be 99%. Moreover, the inhibition at 30 mg/kg in the series with Cyp1a1 (setting [2]) is 98%. In the series on Cyp1a1 (setting [3]), the inhibition at 1 mg/kg worked out at 38%, the inhibition at 2 mg/kg stood at 65%, the inhibition at 5 mg/kg stood at 79% and the inhibition at 10 mg/kg amounted to 88%. In the series with Cyp1a1 (setting [4]), the inhibition at 1 mg/kg came out at 34%, the inhibition at 2 mg/kg turned out to be 63%, the inhibition at 5 mg/kg stood at 96% and the inhibition at 10 mg/kg came out at 81%.
Turning to `CC(C)c1cnn2c(N[C@@H]3CCc4[nH]c5ccccc5c4C3)nc(-c3cncc(F)c3)nc12` [I-40, (3R)—N-[2-(5-Fluoro-3-pyridyl)-8-isopropyl-pyrazolo[1,5-a][1,3,5]triazin-4-yl]-2,3,4,9-tetrahydro-1H-carbazol-3-amine], the IC50 on AHR was < 500 nM. For the same molecule, in series [1] (po, 30 mg/kg), the bioavailability is 75%, the AUC(0-inf) came to 9140 ng·h/mL, the AUC(0-t) amounted to 7560 ng·h/mL and the Cmax worked out at 853 ng/mL. In series [1] (po, 30 mg/kg), the Tmax is 2 h and the half-life was 8.8 h. In series [1] (iv, 3 mg/kg), this molecule had a total exposure AUC(0-inf) of 1210 ng·h/mL, an area under the curve AUC(0-t) of 1070 ng·h/mL, a clearance of 41.2 mL/min/kg and a half-life of 8.4 h. For the same molecule, the Vd in series [1] (iv, 3 mg/kg) turned out to be 24 L/kg. In the series with Cyp1a1 (setting [2]), the inhibition at 5 mg/kg worked out at 77%, the inhibition at 10 mg/kg is 93% and the inhibition at 25 mg/kg came out at 98%. Further, in the series on Cyp1a1 (setting [3]), the inhibition at 5 mg/kg is 34%, the inhibition at 10 mg/kg is 74% and the inhibition at 25 mg/kg amounted to 96%. Also, in the series with Cyp1a1 (setting [4]), the inhibition at 5 mg/kg amounted to 48%, the inhibition at 10 mg/kg is 75% and the inhibition at 25 mg/kg came out at 97%.
